# Laboratory results as given in the METLIN SMRT retention time set (Domingo-Almenara et al. 2019).
# Assay: gradient 5% acetonitrile 3 min, to 50% in 2 min, to 85% in 15 min, held 3 min, 100 µL/min
# Details: column: Zorbax Extend-C18 2.1 x 50 mm; eluents: water / acetonitrile, 0.1% formic acid
# In short: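 Values are retention times taken from adduct peaks that software picked and an analyst inspected. The pure standards were run as mixtures of ~100 molecules on HPLC linked to a quadrupole time-of-flight mass spectrometer, in positive and negative ionization mode. A Zorbax Extend-C18 column (2.1 × 50 mm, 1.8 μm) was used at 100 μL/min with water and acetonitrile, each including 0.1% formic acid.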
row,SMILES,RP-LC retention time [s]
1,Cc1nc(N2CCCC2)c2c(C(=O)Nc3ccc(C)c(C)c3)c(C)oc2n1,830
2,CN(C)CCNC(=O)c1ccc(-c2ccnc(N3CCCC3)n2)cc1,560
3,Cc1ccccc1N1C[C@@]23C=C[C@@H](O2)[C@H](C(=O)OC(C)C)[C@@H]3C1=O,785
4,O=C(CCCn1nc(-c2ccccc2)c2cc(Cl)ccc21)N1CCN(c2ccccn2)CC1,764
5,O=C1CN(Cc2ccc(F)cc2Cl)CC2(CCCCC2)N1CC1CC1,1330
6,Cc1cccc(N2CCN(S(=O)(=O)c3cc(-c4nnc(C5CC5)o4)co3)CC2)c1C,1130
7,Cc1ccc(CNC(=O)C2CCCN(c3nc4ccccc4n(Cc4ccccc4)c3=O)C2)o1 (stereo not drawn),1150
8,O=C(NC1CC1)[C@@H]1C[C@H](Oc2ccccc2)CN1C(=O)COc1ccccc1,797
9,CC(C)c1nnc(-c2ccc(S(=O)(=O)N3CCCCC3)o2)o1,890
10,Clc1ccc2nc(-c3ccc(N4CCOCC4)cc3)c(Nc3ccc4c(c3)OCO4)n2c1,715
11,O=C(Cc1nc(-c2ccccn2)n[nH]1)Nc1ccc(Cl)cc1,666
12,CCOC(=O)c1c(C)[nH]c(C)c1S(=O)(=O)N1CCC(C(=O)NCCc2sccc2C)CC1,794
13,CCCN(CC1CCOC1)C(=O)c1cc(F)ccc1Cl (stereo not drawn),821
14,CC(C)C(=O)N1CCCCCCNC(=O)[C@@H]2CCCC[C@@H]21,777
15,Cc1ccc(S(=O)(=O)N2CCCC(Cn3c(C4CC4)nc4cccnc43)C2)cc1F (stereo not drawn),819
16,CCn1ccc(C(=O)N2CC(c3nc(CCOCC4CC4)no3)C2)n1,725
17,CCCN1CCN(C(=O)CC2Sc3ncccc3N(C)C2=O)CC1 (stereo not drawn),576
18,CCCN1CCN(CCCNC(=O)C2=Cc3cc(Br)ccc3OC2)CC1,610
19,Cc1cc(C)n(-c2ccnc(NCCc3cccs3)n2)n1,836

row,SMILES,RP-LC retention time [s]
1,CCCCN(C)C(=O)CN1C(=O)CCCc2cc(S(=O)(=O)N3CCC(C)CC3)ccc21,971
2,Cc1ccc(NC(=O)C2CCCN(S(=O)(=O)c3c[nH]c(C(=O)N4CCCC4)c3)C2)cc1C (stereo not drawn),866
3,CCOC(=O)C1CCN(c2cc3c(cc2NC(=O)NCC(C)C)n(C)c(=O)n3C)CC1,685
4,CCCCCNC(=O)C1CCN(S(C)(=O)=O)c2cc(Cl)ccc2O1 (stereo not drawn),920
5,Cc1cnc(C(=O)N2CCCn3ccnc3C2C2CCCC2)cn1 (stereo not drawn),582
6,CCn1cc(S(=O)(=O)NCc2ccc(C)cc2)c2cccnc21,900
7,O=C(NCCN1CCCCC1)C1CCN(c2nc3cccnc3s2)CC1,581
8,O=C(NC1CCN(c2cc(-c3ccc(Cl)cc3)[nH]n2)C1)c1cccc(Br)c1 (stereo not drawn),870
9,O=c1n(Cc2ccc3c(c2)OCO3)nc2c(-c3nc(-c4ccccc4)no3)cccn12,944
10,CC(C)CCNC(=O)Nc1ccc2c(c1)CCN2S(C)(=O)=O,784
11,O=C(CN1C(=O)CCCc2cc(S(=O)(=O)N3CCCC3)ccc21)Nc1ccccc1,803
12,CC(C)n1cnc(S(=O)(=O)N2CCC(C(=O)NCc3ccccc3Cl)CC2)c1,744
13,CC(C)N(C(=O)Cn1c(C2CC(=O)N(Cc3ccccc3)C2)nc2ccccc21)C(C)C (stereo not drawn),764
14,Cc1ccc(-c2noc(C3CCCCN3)n2)cc1 (stereo not drawn),630
15,CS(=O)(=O)N1CCC(OC2CCN(C(=O)Nc3cccc(F)c3)CC2)CC1,720
16,Cn1ccnc1SCC(=O)c1ccc([N+](=O)[O-])cc1,549
17,O=c1c2sccc2n(Cc2nc(-c3cccc(Br)c3)no2)c(=O)n1Cc1ccccc1,1110
18,O=C(Cc1ccccc1)NCc1nc(-c2cccc(-c3csc(C4CC4)n3)c2)no1,1070
19,CCOc1ccc(-c2nc(CN3C(=O)C(O)(c4ccccc4)c4ccccc43)c(C)o2)cc1 (stereo not drawn),1110

# Second part, the compound after the results:
row,RP-LC retention time [s],SMILES
1,896,CCOC(=O)c1ccc(NC(=O)c2ccc3c(c2)N(C)C2CCCCN2C3=O)cc1 (stereo not drawn)
2,661,CCC(=O)N1CCCN(C2=NS(=O)(=O)C(c3ccc(Cl)cc3)=C2C)CC1
3,759,COc1ccc(C(=O)N2CCC3(C2)C(=O)N(C)c2ccccc23)c(OC)c1 (stereo not drawn)
4,943,Cc1ccc(-c2cc3n(n2)CCCN(C(=O)CCC(=O)c2ccc(F)cc2)C3)cc1
5,767,COCCNC(=O)c1ccc2c(c1)CCCN2S(=O)(=O)c1ccccc1
6,941,O=C(NCc1ccc(Cl)cc1)C1=C2CCCN2c2ccc(F)cc2S1(=O)=O
7,586,O=C1CC(NC(=O)COc2ccc(F)cc2)CN1 (stereo not drawn)
8,726,Cc1ccc(CCC(=O)Nc2c(C)cccc2C(=O)O)o1
9,1100,COc1ccc(N2CCN(c3cc(SCC(=O)Nc4ccc(C)c(Cl)c4)ncn3)CC2)cc1
10,994,COc1ccc2c(c1)C(C)CC(C)(C)N2C(=O)CSc1ncccn1 (stereo not drawn)
11,810,COc1ccc(CNC(=O)c2nc3ccccn3c2-c2ccsc2)cc1
12,650,Cn1nc(C(=O)NCc2cc(-c3cccs3)on2)ccc1=O
13,568,CCNC(=O)c1cc(C)nc2ccc(C)cc12
14,879,COc1ccc(-c2cc3n(n2)CCCN(C(=O)CCC(=O)c2ccc(F)cc2)C3)cc1
15,734,COc1ccc(NC(=O)Cn2nc3nc(N4CCCC(C)C4)ccn3c2=O)cc1 (stereo not drawn)
16,828,COc1ccc(-c2noc(C3CCCN3C(=O)c3cc(OC)c(OC)c(OC)c3)n2)cc1OC (stereo not drawn)
17,605,COc1ccc(N2C(=O)CCC(C(=O)NCCCN3CCC(C)CC3)C2c2ccc(F)cc2)cc1 (stereo not drawn)
18,811,CN(C)c1ccc(N2C=C(C(=O)N3CCCC3)S(=O)(=O)c3ccccc32)cc1
19,864,COc1ccccc1N1CCN([C@H]2CS(=O)(=O)C[C@@H]2S(=O)(=O)c2ccc(F)c(C)c2)CC1
20,737,COc1ccc(OCc2noc(CNC(=O)NCc3cccs3)n2)cc1
21,819,CCOC(=O)c1[nH]c(C)c(CCC(=O)Nc2ccc3c(c2)OCO3)c1C
22,829,Cc1ccc(F)cc1NC(=O)Cn1nc2c(Oc3cccc(F)c3)nccn2c1=O
23,1190,Cn1nccc1-c1cccc(-c2noc(-c3cc(F)ccc3Cl)n2)c1
24,827,COc1ccc(NC(=O)N2CCOc3ccc(C)cc32)cc1OC
25,702,CN(C)c1nc2cc(C(=O)NCC3CC3)sc2n1-c1ccccc1

row,RP-LC retention time [s],SMILES
1,1030,CCn1c(=O)c(N2CCN(C(=O)Nc3cccc(Br)c3)CC2)nc2cccnc21
2,752,CCC(C)C(=O)NC1CCN(C2=NS(=O)(=O)C(c3ccccc3)=C2C)CC1 (stereo not drawn)
3,1170,Fc1ccc(Nc2nc(N3CCOCC3)nc3c2cnn3-c2ccccc2)cc1
4,840,COc1ccccc1N1CCN(c2cc(SCC(=O)NCc3ccc4c(c3)OCO4)ncn2)CC1
5,1020,COc1ccc(-c2noc(C3CCCN3C(=O)Nc3cc(C)ccc3C)n2)cc1 (stereo not drawn)
6,821,COC(=O)C1=CN(c2ccc(OC)c(OC)c2)c2cc(F)ccc2S1(=O)=O
7,1080,Cc1nn(-c2ccc(F)cc2)c2nc(N3CCCC(C(=O)NCCc4ccco4)C3)sc12 (stereo not drawn)
8,667,O=C(Oc1coc(CSc2ncccn2)cc1=O)c1ccco1
9,952,CCOc1ccccc1-c1noc(-c2cc(-c3ccccc3)n[nH]2)n1
10,906,CCc1ccc(NS(=O)(=O)c2cc3c4c(c2)CCC(=O)N4CCC3)cc1
11,957,CCOc1ccc(-c2noc(Cn3c(=O)n(CC4CCCO4)c(=O)c4ccccc43)n2)cc1OC (stereo not drawn)
12,670,COC(=O)c1cc(N2CCN(C)CC2)nc2c(C)cccc12
13,698,O=C(Nc1cc(F)cc(F)c1)c1ccc(N2CCN(c3ccccn3)CC2)c([N+](=O)[O-])c1
14,1110,Cc1ccc(CNC(=O)C2(C)CCCN(C(=O)Nc3ccc(Br)c(C)c3)C2)cc1 (stereo not drawn)
15,681,C=CCN1CCN(c2nc3cc(C(=O)OC)ccc3c(=O)n2-c2cccc(Cl)c2)CC1
16,904,Cc1ccc2ncn(C3CCN(S(=O)(=O)c4ccc(F)cc4F)CC3)c(=O)c2c1
17,851,Cc1nc(-c2ccc(N3CCN(C(=O)COc4ccccc4)CC3)nc2)sc1C
18,678,Cc1ccn2cc(-c3ccc(NC(=O)c4cccc(Cl)c4)cc3)nc2n1
19,953,Cc1ccc(NC(=O)CN2C(=O)CCCc3cc(S(=O)(=O)N4CCCCC4)ccc32)cc1F
20,933,CC(C(=O)Nc1cccc(Cl)c1)C1CCN(C(=O)Nc2ccc(F)cc2)CC1 (stereo not drawn)
21,740,Cc1cc(C(=O)Nc2nc3ccc(S(=O)(=O)N(C)C)cc3s2)on1
22,1060,CCOc1ccc(S(=O)(=O)N2CCC(C(=O)Nc3ccc(Br)cc3F)CC2)cc1
23,832,CCCSCCCNC(=O)CN1C(=O)CCn2nc(-c3cn(C)c4ccccc34)cc21
24,780,O=C(CN1CCN(Cc2ccc(F)cc2)C(=O)C1=O)NCc1ccc2c(c1)OCO2
25,660,COc1cccc(C(O)CN2CCN(c3ccc(F)cc3)CC2)c1 (stereo not drawn)
